Measurements as given in article PMC6155021, “Ancient and modern anticonvulsants act synergistically in a KCNQ potassium channel binding pocket” (Nature Communications, 2018).

Key:
Assay in all cases: cell-based
Assay type in all cases: cell-based
KCNQ4 = KCNQ4 (Homo sapiens, UniProt P56696)
Source text: (§1) cRNA transcripts encoding human KCNA1, KCNQ1, KCNQ2, KCNQ3, KCNQ4, or KCNQ5 were generated by in vitro transcription using the T7 polymerase message machine kit (Thermo Fisher Scientific), after vector linearization, from cDNA sub-cloned into plasmids incorporating X. laevis β-globin 5′ and 3′ UTRs flanking the coding region to enhance translation and cRNA stability. cRNA was quantified by spectrophotometry. Mutant cDNAs were generated by site-directed mutagenesis using a QuikChange kit according to manufacturer’s protocol (Stratagene, San Diego, CA) and corresponding cRNAs prepared as above. Defolliculated stage V and VI X. laevis oocytes (Ecocyte Bioscience, Austin, TX) were injected with Kv channel α subunit cRNAs (10 ng total per oocyte). Oocytes were incubated at 16 °C in Barth’s saline solution (Ecocyte) containing penicillin and streptomycin, with daily washing, for 3–5 days prior to two-electrode voltage-clamp (TEVC) recording.
(§2) Oocytes were placed in a small-volume oocyte bath (Warner) and viewed with a dissection microscope. Chemicals were sourced from Sigma. Bath solution was (in mM): 96 NaCl, 4 KCl, 1 MgCl2, 1 CaCl2, 10 HEPES (pH 7.6). […] MTX (DMSO), sorbic acid (ethanol), and glutaconic acid (molecular grade H2O) were stored at −20 °C as 1 M stocks. Oleamide was stored as a 1 mM stock in ethanol at 4 °C. Palmitic acid was conjugated with bovine serum albumin as a 1 mM stock and stored at −20 °C. All compounds were diluted to working concentrations each experimental day. All compounds were introduced to the recording bath via gravity perfusion at a constant flow of 1 ml/min for 3 min prior to recording. Pipettes were of 1–2 MΩ resistance when filled with 3 M KCl. Currents were recorded in response to pulses between −80 and +40 mV at 20 mV intervals, or a single pulse to +40 mV, from a holding potential of −80 mV, to yield current–voltage relationships, current magnitude, and for quantifying activation rate. TEVC data analysis was performed with Clampfit10.2 (Molecular Devices) and Graphpad Prism software (GraphPad, San Diego, CA, USA); values are stated as mean ± SEM. Normalized tail currents were plotted versus prepulse voltage and fitted with a single Boltzmann function:1 g=A1-A2/1+expV12-Vy+A2, where g is the normalized tail conductance, A1 is the initial value at −∞, A2 is the final value at +∞, V1/2 is the half-maximal voltage of activation, and Vs the slope factor. Activation and deactivation kinetics were fitted with single-exponential functions.

KCNQ5 = KCNQ5 (Homo sapiens, UniProt Q9NR82)
Source text: as §1, §2

KCNQ3* (KCNQ3-A315T) = KCNQ3* (KCNQ3-A315T) (Homo sapiens, UniProt O43525, A315T)
Source text: as §1, §2

Chain of KCNQ3* (KCNQ3-A315T) (O43525 whole entry A315T, looked up): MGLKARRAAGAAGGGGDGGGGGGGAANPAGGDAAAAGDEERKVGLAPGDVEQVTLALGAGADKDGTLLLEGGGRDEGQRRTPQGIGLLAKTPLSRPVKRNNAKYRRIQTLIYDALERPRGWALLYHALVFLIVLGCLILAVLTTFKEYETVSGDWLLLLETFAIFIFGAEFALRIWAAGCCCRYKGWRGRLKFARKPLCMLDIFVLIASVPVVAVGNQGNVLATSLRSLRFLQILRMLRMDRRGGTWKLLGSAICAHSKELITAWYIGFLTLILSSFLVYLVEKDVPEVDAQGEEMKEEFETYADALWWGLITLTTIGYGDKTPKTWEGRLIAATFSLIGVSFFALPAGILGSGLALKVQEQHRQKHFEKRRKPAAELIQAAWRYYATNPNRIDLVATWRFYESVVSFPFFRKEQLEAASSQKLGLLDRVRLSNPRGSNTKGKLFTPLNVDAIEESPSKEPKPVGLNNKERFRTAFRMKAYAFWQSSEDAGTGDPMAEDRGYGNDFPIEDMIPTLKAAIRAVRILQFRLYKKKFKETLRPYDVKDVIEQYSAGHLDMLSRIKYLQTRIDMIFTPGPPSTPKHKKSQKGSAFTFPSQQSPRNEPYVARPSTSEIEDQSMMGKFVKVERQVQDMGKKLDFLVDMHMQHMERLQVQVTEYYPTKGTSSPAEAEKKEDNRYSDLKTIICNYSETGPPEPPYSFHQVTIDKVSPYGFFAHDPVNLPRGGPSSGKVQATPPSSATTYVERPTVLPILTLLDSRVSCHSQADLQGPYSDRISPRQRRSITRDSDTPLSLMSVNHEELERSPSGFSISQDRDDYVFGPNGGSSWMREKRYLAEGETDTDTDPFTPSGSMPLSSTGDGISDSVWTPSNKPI

## CC(=O)c1c(O)c(C)c(O)c(Cc2c(O)c3c(c(C(=O)/C=C/c4ccccc4)c2O)OC(C)(C)C=C3)c1O [MTX, mallotoxin]
KCNQ4
  EC50: 20.2 µM
KCNQ4; KCNQ4, 0.1 µM
  Non-normalized tail current V0.5: -17.1 ± 8.1 mV
  Normalized tail current V0.5: -17.0 ± 1.6 mV
  Slope: 14.1 ± 1.6 mV
  τ act, -40 mV: 941 ± 52 ms
  τ deact, -80 mV: 924 ± 223 ms
KCNQ4; KCNQ4, 1 µM
  Non-normalized tail current V0.5: -18.1 ± 9.0 mV
  Normalized tail current V0.5: -18.1 ± 1.9 mV
  Slope: 15.0 ± 1.9 mV
  τ act, -40 mV: 878 ± 78 ms
  τ deact, -80 mV: 891 ± 234 ms
KCNQ4; KCNQ4, 3 µM
  Non-normalized tail current V0.5: -20.5 ± 9.8 mV
  Normalized tail current V0.5: -20.1 ± 1.3 mV
  Slope: 15.6 ± 1.9 mV
  τ act, -40 mV: 851 ± 70 ms
  τ deact, -80 mV: 861 ± 240 ms
KCNQ4; KCNQ4, 10 µM
  Non-normalized tail current V0.5: -25.3 ± 9.7 mV
  Normalized tail current V0.5: -25.6 ± 1.9 mV
  Slope: 15.9 ± 1.9 mV
  τ act, -40 mV: 847 ± 94 ms
  τ deact, -80 mV: 906 ± 293 ms
KCNQ4; KCNQ4, 30 µM
  Non-normalized tail current V0.5: -32.9 ± 9.7 mV
  Normalized tail current V0.5: -32.1 ± 1.9 mV
  Slope: 14.4 ± 1.8 mV
  shift in midpoint voltage of activation: −17 mV
  τ act, -40 mV: 865 ± 108 ms
  τ deact, -80 mV: 905 ± 283 ms
KCNQ4; KCNQ4, 100 µM
  Non-normalized tail current V0.5: -31.3 ± 9.4 mV
  Normalized tail current V0.5: -31.5 ± 1.3 mV
  Slope: 16.4 ± 3.2 mV
  τ act, -40 mV: 1092 ± 170 ms
  τ deact, -80 mV: 1197 ± 446 ms
KCNQ5
  EC50: 67.1 µM
KCNQ5; 100 µM
  KCNQ5 current increase at −60 mV: eight-fold
KCNQ5; KCNQ5, 1 µM
  Non-normalized tail current V0.5: -49.3 ± 1.2 mV
  Normalized tail current V0.5: -49.9 ± 2.1 mV
  Slope: 8.3 ± 2.1 mV
KCNQ5; KCNQ5, 3 µM
  Non-normalized tail current V0.5: -51.7 ± 1.8 mV
  Normalized tail current V0.5: -51.1 ± 2.3 mV
  Slope: 8.5 ± 2.1 mV
KCNQ5; KCNQ5, 10 µM
  Non-normalized tail current V0.5: -51.9 ± 0.8 mV
  Normalized tail current V0.5: -51.5 ± 3.2 mV
  Slope: 8.6 ± 2.9 mV
KCNQ5; KCNQ5, 30 µM
  Non-normalized tail current V0.5: -55.9 ± 0.8 mV
  Normalized tail current V0.5: -55.6 ± 3.8 mV
  Slope: 8.8 ± 3.6 mV
  shift in midpoint voltage of activation: −14 mV
KCNQ5; KCNQ5, 100 µM
  Non-normalized tail current V0.5: -71.1 ± 2.6 mV
  Normalized tail current V0.5: -71.6 ± 2.1 mV
KCNQ3* (KCNQ3-A315T)
  EC50: 13 µM
KCNQ3* (KCNQ3-A315T); KCNQ3*, 1 µM
  Non-normalized tail current V0.5: -56.1 ± 4.2 mV
  Normalized tail current V0.5: -56.4 ± 1.6 mV
  τ act, -40 mV: 552 ± 98 ms
  τ deact, -80 mV: 290 ± 51 ms
KCNQ3* (KCNQ3-A315T); KCNQ3*, 3 µM
  Non-normalized tail current V0.5: -57.4 ± 5.3 mV
  Normalized tail current V0.5: -57.3 ± 1.4 mV
  τ act, -40 mV: 489 ± 55 ms
  τ deact, -80 mV: 263 ± 29 ms
KCNQ3* (KCNQ3-A315T); KCNQ3*, 10 µM
  Non-normalized tail current V0.5: -59.5 ± 4.2 mV
  Normalized tail current V0.5: -59.5 ± 1.0 mV
  τ act, -40 mV: 421 ± 26 ms
  τ deact, -80 mV: 244 ± 17 ms
KCNQ3* (KCNQ3-A315T); KCNQ3*, 30 µM
  Non-normalized tail current V0.5: -62.1 ± 3.9 mV
  Normalized tail current V0.5: -62.3 ± 1.2 mV
  shift in midpoint voltage of activation: −9 mV
  τ act, -40 mV: 388 ± 20 ms
  τ deact, -80 mV: 240 ± 18 ms
KCNQ3* (KCNQ3-A315T); KCNQ3*, 100 µM
  Non-normalized tail current V0.5: -65.2 ± 3.9 mV
  Normalized tail current V0.5: -66.2 ± 2.1 mV
  τ act, -40 mV: 403 ± 36 ms
  τ deact, -80 mV: 269 ± 30 ms
